# US20250011368A1, “DLL3 TARGETING PEPTIDES AND CONSTRUCTS THEREOF” (MARIANA ONCOLOGY INC., priority 2023, published 2025)
# Like-named read-outs stand apart in the source and are kept apart here. Numbered stars: 1 amine (or outer) side, 2 acyl side, 3 side chain; on linkers, the order of the positions; unused ones are H or OH. Bridge positions count the residues as written; N and C are the ends. Square brackets hold non-standard residues; d marks the D form. Side chains are listed from the residue outwards. Peptide text beside a SMILES is read from it. I, II: the chains in the order shown. * marks the point of attachment. X10 = C[N+](C)(CCNC(=O)CCOCCOCCOCCOCCOCCOCCOCCOCCNC(=O)CN1CCN(CC(=O)O)CCN(CC(=O)O)CCN(CC(=O)O)CC1)CC(=O)*; DOTA = O=C(O)CN1CCN(CC(=O)O)CCN(CC(=O)*)CCN(CC(=O)O)CC1; PEG8 = NCCOCCOCCOCCOCCOCCOCCOCCOCCC(=O)O; X6 = C[C@@H]1CN([*:1])[C@@H]1C(=O)[*:2]; γGlu = O=C(O)[C@H](CCC(=O)[*:2])N[*:1]; 2Nal = N[C@@H](Cc1ccc2ccccc2c1)C(=O)O; X8 = CC1(C)CN([*:1])[C@@H]1C(=O)[*:2]; X12 = C[N+](C)(CCN[*:1])CC(=O)[*:2]; X7 = C[C@@]1(C(=O)[*:2])CCN1[*:1]
# Molecular target: T1, human DLL3 (Homo sapiens, UniProt Q9NYJ7)
# T1 sequence (Q9NYJ7 27-618): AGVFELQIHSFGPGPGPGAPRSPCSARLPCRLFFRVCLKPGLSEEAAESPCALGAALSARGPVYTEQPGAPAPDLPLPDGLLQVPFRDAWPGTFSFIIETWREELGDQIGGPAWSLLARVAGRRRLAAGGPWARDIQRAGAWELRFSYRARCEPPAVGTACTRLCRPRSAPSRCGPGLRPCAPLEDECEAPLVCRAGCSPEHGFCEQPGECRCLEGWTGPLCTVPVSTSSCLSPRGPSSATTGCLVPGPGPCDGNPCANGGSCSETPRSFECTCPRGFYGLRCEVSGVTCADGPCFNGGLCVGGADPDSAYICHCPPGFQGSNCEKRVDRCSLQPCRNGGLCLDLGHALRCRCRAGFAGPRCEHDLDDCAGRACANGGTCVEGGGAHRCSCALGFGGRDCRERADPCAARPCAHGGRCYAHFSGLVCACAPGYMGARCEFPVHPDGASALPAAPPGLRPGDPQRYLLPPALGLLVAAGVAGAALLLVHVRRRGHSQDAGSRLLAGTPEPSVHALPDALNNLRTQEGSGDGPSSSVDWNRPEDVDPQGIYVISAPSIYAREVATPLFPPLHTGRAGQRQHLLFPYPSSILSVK
# Assay: Affinity determination by Surface Plasmon Resonance (SPR)
# Type: binding
# Outline: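 Biotinylated human DLL3 was captured on a streptavidin chip with a reference surface. Compounds at several concentrations were injected at 100 μL/minute in phosphate buffer (137 mM NaCl, 2.7 mM KCl, 0.05% P20, 2% DMSO). Affinity and kinetics came from 1:1 model fits of the sensorgrams.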
# [1] = 25° C., biotinylated human DLL3 immobilized on streptavidin sensor chip, 1:1 binding model, read-out: SPR KD
SMILES,Kd [1] [nM],Kd [nM]
"CC[C@H](C)[C@H](NC(=O)[C@@H](NC(=O)[C@H](Cc1c[nH]c2ccccc12)NC(C)=O)[C@@H](C)O)C(=O)N[C@H]1CSSC[C@@H](C(=O)N[C@@H](Cc2c[nH]c3ccccc23)C(=O)N2CCC[C@H]2C(=O)N[C@H](CCCCNC(=O)CC[C@H](NC(=O)CC[C@H](NC(=O)CC[C@H](NC(=O)CN2CCN(CC(=O)O)CCN(CC(=O)O)CCN(CC(=O)O)CC2)C(=O)O)C(=O)O)C(=O)O)C(N)=O)NC(=O)[C@H](CC(=O)O)NC(=O)[C@H](Cc2cnc[nH]2)NC(=O)[C@H](Cc2ccc3ccccc3c2)NC(=O)[C@H](CC(N)=O)NC(=O)[C@H](CC(N)=O)NC1=O [compound 355, Ac-W-T-I-C(3)-N-N-(2Nal)-H-D-C(3)-W-P-[D-Lys(gE-gE-gE-DOTA)]-NH2] (Ac-WTICNN[2Nal]HDCWP[dK]([γGlu-γGlu-γGlu-DOTA])-NH2; disulfide 4-10)",< 1,–
"CC[C@H](C)[C@H](NC(=O)[C@@H](NC(=O)[C@H](Cc1c[nH]c2ccccc12)NC(C)=O)[C@@H](C)O)C(=O)N[C@H]1CSSC[C@@H](C(=O)N[C@@H](Cc2c[nH]c3ccccc23)C(=O)N2CCC[C@H]2C(=O)N2CCC[C@@H]2C(=O)N2CCC[C@@H]2C(=O)N2CCC[C@@H]2C(=O)NCCOCCOCCOCCOCCOCCOCCOCCOCCC(=O)N[C@H](CCCCNC(=O)CN2CCN(CC(=O)O)CCN(CC(=O)O)CCN(CC(=O)O)CC2)C(N)=O)NC(=O)[C@H](CC(=O)O)NC(=O)[C@H](Cc2c[nH]cn2)NC(=O)[C@H](Cc2ccc3ccccc3c2)NC(=O)[C@H](CC(N)=O)NC(=O)[C@H](CC(N)=O)NC1=O [compound 357, Ac-W-T-I-C(3)-N-N-(2Nal)-H-D-C(3)-W-P-(D-Pro)3-PEG8-[D-Lys(DOTA)]-NH2] (Ac-WTICNN[2Nal]HDCWP[dP][dP][dP][PEG8][dK](DOTA)-NH2; disulfide 4-10)",< 1,–
"CC[C@H](C)[C@H](NC(=O)[C@@H](NC(=O)[C@H](Cc1c[nH]c2ccccc12)NC(C)=O)[C@@H](C)O)C(=O)N[C@H]1CSSC[C@@H](C(=O)N[C@@H](Cc2c[nH]c3ccccc23)C(=O)N2CCC[C@H]2C(=O)N[C@H](CCCCNC(=O)C[N+](C)(C)CCNC(=O)CCOCCOCCOCCOCCOCCOCCOCCOCCNC(=O)CN2CCN(CC(=O)O)CCN(CC(=O)O)CCN(CC(=O)O)CC2)C(N)=O)NC(=O)[C@H](CC(=O)O)NC(=O)[C@H](Cc2c[nH]cn2)NC(=O)[C@H](Cc2ccc3ccccc3c2)NC(=O)[C@H](CC(N)=O)NC(=O)[C@H](CC(N)=O)NC1=O [compound 363, Ac-W-T-I-C(3)-N-N-(2Nal)-H-D-C(3)-W-P-[D-Lys(SP6-PEG8-DOTA)]-NH2] (Ac-WTICNN[2Nal]HDCWP[dK](X10)-NH2; disulfide 4-10)",–,< 1
"CC[C@H](C)[C@H](NC(=O)[C@@H](NC(=O)[C@H](Cc1c[nH]c2ccccc12)NC(C)=O)[C@@H](C)O)C(=O)N[C@H]1CSSC[C@@H](C(=O)N[C@@H](Cc2c[nH]c3ccccc23)C(=O)N2CCC[C@H]2C(=O)NCC[N+](C)(C)CC(=O)NCCOCCOCCOCCOCCOCCOCCOCCOCCC(=O)N[C@H](CCCCNC(=O)CN2CCN(CC(=O)O)CCN(CC(=O)O)CCN(CC(=O)O)CC2)C(N)=O)NC(=O)[C@H](CC(=O)O)NC(=O)[C@H](Cc2c[nH]cn2)NC(=O)[C@H](Cc2ccc3ccccc3c2)NC(=O)[C@H](CC(N)=O)NC(=O)[C@H](CC(N)=O)NC1=O [compound 364, Ac-W-T-I-C(3)-N-N-(2Nal)-H-D-C(3)-W-P-SP6-PEG8-[D-Lys(DOTA)]-NH2] (Ac-WTICNN[2Nal]HDCWP[X12][PEG8][dK](DOTA)-NH2; disulfide 4-10)",< 1,–
"CC[C@H](C)[C@H](NC(=O)[C@@H](NC(=O)[C@H](Cc1c[nH]c2ccccc12)NC(C)=O)[C@@H](C)O)C(=O)N[C@H]1CSSC[C@@H](C(=O)N[C@@H](Cc2c[nH]c3ccccc23)C(=O)N2CCC[C@H]2C(=O)N[C@H](CCCCNC(=O)CNC(=O)CNC(=O)[C@H](CO)NC(=O)CNC(=O)CNC(=O)[C@H](CO)NC(=O)CN2CCN(CC(=O)O)CCN(CC(=O)O)CCN(CC(=O)O)CC2)C(N)=O)NC(=O)[C@H](CC(=O)O)NC(=O)[C@H](Cc2c[nH]cn2)NC(=O)[C@H](Cc2ccc3ccccc3c2)NC(=O)[C@H](CC(N)=O)NC(=O)[C@H](CC(N)=O)NC1=O [compound 365, Ac-W-T-I-C(3)-N-N-(2Nal)-H-D-C(3)-W-P-[D-Lys(G-G-S-G-G-S-DOTA)]-NH2] (I: Ac-WTICNN[2Nal]HDCWP[dK]-NH2 / II: {DOTA}-SGGSGG; disulfide I:4-I:10; amide I:13-II:C)",< 1,–

# Further lines, with some results ahead:
Kd [1] [nM],SMILES,Kd [nM]
< 1,"CC[C@H](C)[C@H](NC(=O)[C@@H](NC(=O)[C@H](Cc1c[nH]c2ccccc12)NC(C)=O)[C@@H](C)O)C(=O)N[C@H]1CSSC[C@@H](C(=O)N[C@@H](Cc2c[nH]c3ccccc23)C(=O)N2CCC[C@H]2C(=O)N[C@H](CCCCNC(=O)CC[C@H](NC(=O)CN2CCN(CC(=O)O)CCN(CC(=O)O)CCN(CC(=O)O)CC2)C(=O)O)C(N)=O)NC(=O)[C@H](CC(=O)O)NC(=O)[C@H](Cc2cnc[nH]2)NC(=O)[C@H](Cc2ccc3ccccc3c2)NC(=O)[C@H](CC(N)=O)NC(=O)[C@H](CC(N)=O)NC1=O [compound 354, Ac-W-T-I-C(3)-N-N-(2Nal)-H-D-C(3)-W-P-[D-Lys(gE-DOTA)]-NH2] (Ac-WTICNN[2Nal]HDCWP[dK]([γGlu-DOTA])-NH2; disulfide 4-10)",–
< 1,"CC[C@H](C)[C@H](NC(=O)[C@@H](NC(=O)[C@H](Cc1c[nH]c2ccccc12)NC(C)=O)[C@@H](C)O)C(=O)N[C@H]1CSSC[C@@H](C(=O)N[C@@H](Cc2c[nH]c3ccccc23)C(=O)N2CCC[C@H]2C(=O)N[C@H](CCCCNC(=O)[C@H]2CCCN2C(=O)CCOCCOCCOCCOCCOCCOCCOCCOCCNC(=O)CN2CCN(CC(=O)O)CCN(CC(=O)O)CCN(CC(=O)O)CC2)C(N)=O)NC(=O)[C@H](CC(=O)O)NC(=O)[C@H](Cc2cnc[nH]2)NC(=O)[C@H](Cc2ccc3ccccc3c2)NC(=O)[C@H](CC(N)=O)NC(=O)[C@H](CC(N)=O)NC1=O [compound 356, Ac-W-T-I-C(3)-N-N-(2Nal)-H-D-C(3)-W-P-[D-Lys((D-Pro)-PEG8-DOTA)]-NH2] (Ac-WTICNN[2Nal]HDCWP[dK]([dP-PEG8-DOTA])-NH2; disulfide 4-10)",–
< 1,"CC[C@H](C)[C@H](NC(=O)[C@@H](NC(=O)[C@H](Cc1c[nH]c2ccccc12)NC(C)=O)[C@@H](C)O)C(=O)N[C@H]1CSSC[C@@H](C(=O)N[C@@H](Cc2c[nH]c3ccccc23)C(=O)N2CCC[C@H]2C(=O)N[C@H](CCCCNC(=O)[C@H]2CCCN2C(=O)[C@H]2CCCN2C(=O)[C@H]2CCCN2C(=O)CCOCCOCCOCCOCCOCCOCCOCCOCCNC(=O)CN2CCN(CC(=O)O)CCN(CC(=O)O)CCN(CC(=O)O)CC2)C(N)=O)NC(=O)[C@H](CC(=O)O)NC(=O)[C@H](Cc2c[nH]cn2)NC(=O)[C@H](Cc2ccc3ccccc3c2)NC(=O)[C@H](CC(N)=O)NC(=O)[C@H](CC(N)=O)NC1=O [compound 358, Ac-W-T-I-C(3)-N-N-(2Nal)-H-D-C(3)-W-P-[D-Lys((D-Pro)3-PEG8-DOTA)]-NH2] (Ac-WTICNN[2Nal]HDCWP[dK]([dP-dP-dP-PEG8-DOTA])-NH2; disulfide 4-10)",–
< 1,"CC[C@H](C)[C@H](NC(=O)[C@@H](NC(=O)[C@H](Cc1c[nH]c2ccccc12)NC(C)=O)[C@@H](C)O)C(=O)N[C@H]1CSSC[C@@H](C(=O)N[C@@H](Cc2c[nH]c3ccccc23)C(=O)N2C[C@@H](C)[C@H]2C(=O)N[C@H](CCCCNC(=O)CN2CCN(CC(=O)O)CCN(CC(=O)O)CCN(CC(=O)O)CC2)C(N)=O)NC(=O)[C@H](CC(=O)O)NC(=O)[C@H](Cc2c[nH]cn2)NC(=O)[C@H](Cc2ccc3ccccc3c2)NC(=O)[C@H](CC(N)=O)NC(=O)[C@H](CC(N)=O)NC1=O [compound 359, Ac-W-T-I-C(3)-N-N-(2Nal)-H-D-C(3)-W-R-3Me-Aze-[D-Lys(DOTA)]-NH2] (Ac-WTICNN[2Nal]HDCW[X6][dK](DOTA)-NH2; disulfide 4-10)",–
< 1,"CC[C@H](C)[C@H](NC(=O)[C@@H](NC(=O)[C@H](Cc1c[nH]c2ccccc12)NC(C)=O)[C@@H](C)O)C(=O)N[C@H]1CSSC[C@@H](C(=O)N[C@@H](Cc2c[nH]c3ccccc23)C(=O)N2CC[C@@]2(C)C(=O)N[C@H](CCCCNC(=O)CN2CCN(CC(=O)O)CCN(CC(=O)O)CCN(CC(=O)O)CC2)C(N)=O)NC(=O)[C@H](CC(=O)O)NC(=O)[C@H](Cc2c[nH]cn2)NC(=O)[C@H](Cc2ccc3ccccc3c2)NC(=O)[C@H](CC(N)=O)NC(=O)[C@H](CC(N)=O)NC1=O [compound 360, Ac-W-T-I-C(3)-N-N-(2Nal)-H-D-C(3)-W-aMe-Aze-[D-Lys(DOTA)]-NH2] (Ac-WTICNN[2Nal]HDCW[X7][dK](DOTA)-NH2; disulfide 4-10)",–
< 1,"CC[C@H](C)[C@H](NC(=O)[C@@H](NC(=O)[C@H](Cc1c[nH]c2ccccc12)NC(C)=O)[C@@H](C)O)C(=O)N[C@H]1CSSC[C@@H](C(=O)N[C@@H](Cc2c[nH]c3ccccc23)C(=O)N2CC(C)(C)[C@H]2C(=O)N[C@H](CCCCNC(=O)CN2CCN(CC(=O)O)CCN(CC(=O)O)CCN(CC(=O)O)CC2)C(N)=O)NC(=O)[C@H](CC(=O)O)NC(=O)[C@H](Cc2c[nH]cn2)NC(=O)[C@H](Cc2ccc3ccccc3c2)NC(=O)[C@H](CC(N)=O)NC(=O)[C@H](CC(N)=O)NC1=O [compound 362, Ac-W-T-I-C(3)-N-N-(2Nal)-H-D-C(3)-W-3Me2-Aze-[D-Lys(DOTA)]-NH2] (Ac-WTICNN[2Nal]HDCW[X8][dK](DOTA)-NH2; disulfide 4-10)",–
